Assay [1] concerns the target T1, MAT2A homodimer (Homo sapiens, UniProt P31153).
T1 construct: inferred from Ni sepharose purification with imidazole elution; made in house; host or cells: Sf9 insect cells, baculovirus (Bac to Bac, pFASTBAC1)
As to the kind of experiment: MAT2A inhibition (biochemical, liberated phosphate, PiColorLock Gold). To be noted: recombinant MAT2A homodimer; IC50 bin with Max Inh.; read-out: Enzyme Inhibition Bin. Put shortly:
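Baculovirus/Sf9-expressed, Ni-purified MAT2A (4 μg/mL) preincubated with compound 60 min at 25 °C in Tris pH 8.0/KCl/MgCl2 buffer. Reaction started with 500 μM ATP and 400 μM L-methionine (substrate-mix concentrations), run 60 min at 25 °C. Phosphate measured colorimetrically against a phosphate standard curve to give IC50.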

For assay [2], the system named is SAM in HCT116 human colon carcinoma cell line with MTAP gene deleted (MTAP −/−). As to the kind of experiment: Cellular assay of target engagement (SAM), LC-MS/MS, 72 hrs. To be noted: HCT-116, IC50 bin with Max Inh., read-out: Cell 72 h SAM Inhibition (MTAP −/−). The class given is cell-based. Put shortly: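 MTAP-deleted HCT116 cells plated 24 h, then given 10-point 3-fold dilutions for 72 hrs at 37° C. Intracellular SAM extracted in cold 80% methanol with 1M acetic acid and d3-SAM standard, quantified by LC-MS/MS (MRM m/z 399.2→250.1); IC50 derived.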

Assay [3] relates to HCT116 MTAP−/−. As to the kind of experiment: Inhibition of cellular proliferation, 4 days, Cell Titer Glo, HCT116 MTAP−/−. The class given is cell-based. To be noted: Homo sapiens, HCT-116, 96 h, IC50 bin with Max Inh., read-out: 4 Day Relative Growth Inhibition (MTAP −/−). An outline of the steps: (§1)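 Isogenic HCT116 pair differing only in MTAP status, plated 24 h before treatment with 10-point 3-fold dilutions; 4 days at 37° C./5% CO2. Cell Titer Glo luminescence, blank-subtracted and normalised to 0.2% DMSO control, gives percentage proliferation vs log molar concentration for IC50.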
A general note: Cellular ATP, detected with luciferase, serves as a proxy for viable cell number.

Assay [4] concerns HCT116 MTAP+/+. Nature of the assay: Inhibition of cellular proliferation, 4 days, Cell Titer Glo, HCT116 MTAP+/+. The class given is cell-based. The settings on record: Homo sapiens, HCT-116, 96 h, IC50 bin with Max Inh., read-out: 4 Day Relative Growth Inhibition (MTAP +/+). Put shortly: as §1

The structures appear in SMILES notation.

T1 sequence (P31153 whole entry): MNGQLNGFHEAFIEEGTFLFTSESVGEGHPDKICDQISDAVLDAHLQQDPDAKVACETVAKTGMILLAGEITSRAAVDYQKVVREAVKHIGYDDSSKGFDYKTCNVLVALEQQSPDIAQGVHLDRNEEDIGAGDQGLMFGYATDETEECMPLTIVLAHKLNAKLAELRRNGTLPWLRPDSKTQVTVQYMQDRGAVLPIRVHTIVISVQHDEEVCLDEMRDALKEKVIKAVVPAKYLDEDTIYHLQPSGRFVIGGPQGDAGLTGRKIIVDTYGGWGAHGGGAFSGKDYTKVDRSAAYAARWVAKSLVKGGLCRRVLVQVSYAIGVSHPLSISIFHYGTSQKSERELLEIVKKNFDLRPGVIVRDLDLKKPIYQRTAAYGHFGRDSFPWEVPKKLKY

As to `CC(=O)c1cn(CC2CC2)c2c(-c3ccc(C4CC4)nc3)c(=O)n(-c3ccc4nn(C)cc4c3)nc12` [Example 236, 7-acetyl-5-(cyclopropylmethyl)-4-(6-cyclopropylpyridin-3-yl)-2-(2-methyl-2H-indazol-5-yl)-2,5-dihydro-3H-pyrrolo[3,2-c]pyridazin-3-one], the IC50 is less than 100 nM in assay [1], less than 100 nM in assay [2], less than 100 nM in assay [3] and more than 1000 nM in assay [4].

In the case of `Cc1nn(CC2CC2)c2c(-c3ccc(C4CC4)nc3)c(=O)n(-c3ccc4nn(C)cc4c3)nc12` [Example 211, 1-(cyclopropylmethyl)-7-(6-cyclopropylpyridin-3-yl)-3-methyl-5-(2-methyl-2H-indazol-5-yl)-1H,5H,6H-pyrazolo[4,3-c]pyridazin-6-one], the IC50 in assay [1] was less than 100 nM; in assay [2] it was less than 100 nM; in assay [3] it was less than 100 nM; in assay [4] it was more than 1000 nM.

For the compound `[2H]C([2H])([2H])Oc1ccc(-c2c(=O)n(-c3ccc4nn(C)cc4c3)nc3[nH]c(=O)n(CC4CC4)c23)cc1` [Example 206, 5-(cyclopropylmethyl)-4-(4-(methoxy-d3)phenyl)-2-(2-methyl-2H-indazol-5-yl)-2,7-dihydro-3H-imidazo[4,5-c]pyridazine-3,6(5H)-dione], the IC50 in assay [1] is less than 100 nM; in assay [2], less than 100 nM; in assay [3], 100 to 1000 nM; in assay [4], more than 1000 nM.

On to `Cn1cc2cc(-n3nc4ccn(CC5CC5)c4c(-c4ccc(C#N)cc4)c3=O)ccc2n1` [Example 154, 4-(5-(cyclopropylmethyl)-2-(2-methyl-2H-indazol-5-yl)-3-oxo-3,5-dihydro-2H-pyrrolo[3,2-c]pyridazin-4-yl)benzonitrile], for which the IC50 in assay [1] is less than 100 nM; in assay [2], 100 to 1000 nM; in assay [3], 100 to 1000 nM; in assay [4], 100 to 1000 nM.

Consider `CNC(=O)c1cn(CC2CC2)c2c(-c3ccc(C)nc3)c(=O)n(-c3ccc4nn(C)cc4c3)nc12` [Example 177, 5-(cyclopropylmethyl)-N-methyl-2-(2-methyl-2H-indazol-5-yl)-4-(6-methylpyridin-3-yl)-3-oxo-3,5-dihydro-2H-pyrrolo[3,2-c]pyridazine-7-carboxamide], for which the IC50 in assay [1] is less than 100 nM; in assay [2], less than 100 nM; in assay [3] it was 100 to 1000 nM; in assay [4], more than 1000 nM.

`Cn1cc2cc(-n3nc4ccn(CC5CC5)c4c(-c4ccc(C(F)F)nc4)c3=O)ccc2n1` [Example 123, 5-(cyclopropylmethyl)-4-(6-(difluoromethyl)pyridin-3-yl)-2-(2-methyl-2H-indazol-5-yl)-2,5-dihydro-3H-pyrrolo[3,2-c]pyridazin-3-one]: the IC50 in assay [1] is less than 100 nM; in assay [2] it was less than 100 nM; in assay [3], less than 100 nM; in assay [4], 100 to 1000 nM.

Take `Cn1cc2cc(-n3nc4c(C#N)cn(CCC(F)(F)F)c4c(-c4ccc(C5CC5)nc4)c3=O)ccc2n1` [Example 109, 4-(6-cyclopropylpyridin-3-yl)-2-(2-methyl-2H-indazol-5-yl)-3-oxo-5-(3,3,3-trifluoropropyl)-3,5-dihydro-2H-pyrrolo[3,2-c]pyridazine-7-carbonitrile]: the IC50 is less than 100 nM in assay [1], 100 to 1000 nM in assay [2], 100 to 1000 nM in assay [3] and more than 1000 nM in assay [4].

Regarding `Cn1cc2cc(-n3nc4c(S(N)(=O)=O)cn(CC5CC5)c4c(-c4ccc(C5CC5)cc4)c3=O)ccc2n1` [Example 180, 5-(cyclopropylmethyl)-4-(4-cyclopropylphenyl)-2-(2-methyl-2H-indazol-5-yl)-3-oxo-3,5-dihydro-2H-pyrrolo[3,2-c]pyridazine-7-sulfonamide], the IC50 in assay [1] is less than 100 nM; in assay [2] it was less than 100 nM; in assay [3], less than 100 nM; in assay [4] it was more than 1000 nM.

With `Cn1cc2cc(-n3nc4c(CC#N)cn(CC5CC5)c4c(-c4ccc(C5CC5)nc4)c3=O)ccc2n1` [Example 259, 2-(5-(cyclopropylmethyl)-4-(6-cyclopropylpyridin-3-yl)-2-(2-methyl-2H-indazol-5-yl)-3-oxo-3,5-dihydro-2H-pyrrolo[3,2-c]pyridazin-7-yl)acetonitrile], the IC50 in assay [1] is less than 100 nM; in assay [2], less than 100 nM; in assay [3] it was less than 100 nM; in assay [4], more than 1000 nM.

In the case of `Cc1ccc(-c2c(=O)n(-c3ccc4nn(C)cc4c3)nc3c(CO)cn(CC4CC4)c23)cn1` [Example 255, 5-(cyclopropylmethyl)-7-(hydroxymethyl)-2-(2-methyl-2H-indazol-5-yl)-4-(6-methylpyridin-3-yl)-2,5-dihydro-3H-pyrrolo[3,2-c]pyridazin-3-one], the IC50 in assay [1] is less than 100 nM; in assay [2], less than 100 nM; in assay [3], less than 100 nM; in assay [4] it was 100 to 1000 nM.

Regarding `Cn1cc2cc(-n3nc4c(C(N)=O)cn(CC5CC5)c4c(-c4ccc(C5CC5)cc4)c3=O)ccc2n1` [Example 166, 5-(cyclopropylmethyl)-4-(4-cyclopropylphenyl)-2-(2-methyl-2H-indazol-5-yl)-3-oxo-3,5-dihydro-2H-pyrrolo[3,2-c]pyridazine-7-carboxamide], the IC50 in assay [1] is less than 100 nM; in assay [2] it was less than 100 nM; in assay [3], less than 100 nM; in assay [4] it was more than 1000 nM.

As for `O=c1c(-c2ccc(OC(F)F)cc2)c2c(ccn2CC2CC2)nn1-c1ccc2ncccc2c1` [Example 225, 5-(cyclopropylmethyl)-4-(4-(difluoromethoxy)phenyl)-2-(quinolin-6-yl)-2,5-dihydro-3H-pyrrolo[3,2-c]pyridazin-3-one], the IC50 in assay [1] was less than 100 nM; in assay [2] it was less than 100 nM; in assay [3], less than 100 nM; in assay [4] it was 100 to 1000 nM.

Regarding `CC(C)Cn1ccc2nn(-c3ccc4nn(C)cc4c3)c(=O)c(-c3ccc(OC(F)F)cc3)c21` [Example 115, 4-(4-(difluoromethoxy)phenyl)-5-isobutyl-2-(2-methyl-2H-indazol-5-yl)-2,5-dihydro-3H-pyrrolo[3,2-c]pyridazin-3-one], the IC50 in assay [1] is less than 100 nM; in assay [2], less than 100 nM; in assay [3], less than 100 nM; in assay [4], more than 1000 nM.

On to `Cc1nc2nn(-c3ccc4nn(C)cc4c3)c(=O)c(-c3ccc(OC(F)F)cc3)c2n1CC1CC1` [Example 191, 5-(cyclopropylmethyl)-4-(4-(difluoromethoxy)phenyl)-6-methyl-2-(2-methyl-2H-indazol-5-yl)-2,5-dihydro-3H-imidazo[4,5-c]pyridazin-3-one], for which the IC50 was less than 100 nM in assay [1], less than 100 nM in assay [2], less than 100 nM in assay [3] and more than 1000 nM in assay [4].

Regarding `Cc1ccc(-c2c(=O)n(-c3ccc4nn(C)cc4c3)nc3c(C#N)cn(CC4CC4)c23)cn1` [Example 104, 5-(cyclopropylmethyl)-2-(2-methyl-2H-indazol-5-yl)-4-(6-methylpyridin-3-yl)-3-oxo-3,5-dihydro-2H-pyrrolo[3,2-c]pyridazine-7-carbonitrile], the IC50 was less than 100 nM in assay [1], less than 100 nM in assay [2], less than 100 nM in assay [3] and more than 1000 nM in assay [4].
